# Laboratory results: ChEMBL document CHEMBL5226278, “Pharmacological approaches for targeting cystic fibrosis nonsense mutations” (2020)
# Assay: Restoration of CFTR chloride channel activity in human HBE cells expressing wild type CFTR assessed as increase in channel function
# Format: functional
structure (smiles),measurement,value
C[C@H](N)[C@H]1O[C@@H](O[C@@H]2[C@@H](O)[C@H](N)C[C@H](N)[C@H]2O[C@H]2O[C@H]([C@@H](C)O)[C@@H](O)[C@H](O)[C@H]2N)[C@H](O)[C@@H]1O,Activity,7%
